Among the test systems are SR leukemia; HCT-116 colon; IGROV1 ovarian; COLO 205 colon; SNB-75 CNS; 786-0 renal; HL-60(TB) leukemia; OVCAR-5 ovarian; HOP-62 NSCLC; M14 melanoma.
Experiment in all cases: inhibition of tumour cell growth, NCI panel, 48 h

Molecules are shown by their SMILES.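 Five compound concentrations were applied to cells in 96-well plates for 48 hours; endpoints were derived by simple linear interpolation of the resulting dose-response curve. The concentration for 50% growth inhibition is given as GI50. TGI: total growth inhibition.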 Where only a bound is given, the exact number is not on record here.

Regarding `CC(C)(C)c1cc2c(OP(c3ccccc3)c3ccccc3)c(c1)Cc1cc(C(C)(C)C)cc(c1OP(c1ccccc1)c1ccccc1)Cc1cc(C(C)(C)C)cc(c1OP(c1ccccc1)c1ccccc1)Cc1cc(C(C)(C)C)cc(c1OP(c1ccccc1)c1ccccc1)C2`, the TGI is above 5 µM with SR leukemia; above 5 µM in the assay with HCT-116 colon; above 50 µM with IGROV1 ovarian; above 50 µM with COLO 205 colon; above 50 µM in the assay with SNB-75 CNS; above 50 µM in the assay on 786-0 renal. Also, the TGI in the assay on HL-60(TB) leukemia, in the assay on OVCAR-5 ovarian, in the assay on HOP-62 NSCLC and in the assay on M14 melanoma was above 50 µM throughout. Further, the GI50 with IGROV1 ovarian, in the assay with COLO 205 colon, in the assay on SNB-75 CNS, in the assay on 786-0 renal, in the assay with HL-60(TB) leukemia and in the assay on OVCAR-5 ovarian was above 50 µM in each case. The GI50 with HOP-62 NSCLC and in the assay with M14 melanoma was above 50 µM in each case.

Take `C=CC1(C)/C(=N\O)C(C)(CC)C(=O)N1O` (stereo not given): the TGI in the assay with SR leukemia, in the assay on HCT-116 colon, in the assay with IGROV1 ovarian, with COLO 205 colon, in the assay on SNB-75 CNS and in the assay on 786-0 renal was above 100 µM in each case. The TGI in the assay with HL-60(TB) leukemia, in the assay on OVCAR-5 ovarian, with HOP-62 NSCLC and in the assay with M14 melanoma was above 100 µM each time.

On to `CCCN(CCC)c1ccc(C=O)c(OC)c1`, for which the GI50 in the assay with SR leukemia is 10.7 µM; in the assay on HCT-116 colon, 25.5 µM; in the assay with IGROV1 ovarian it was 32.8 µM; with COLO 205 colon it was 22.3 µM; in the assay on SNB-75 CNS, 16.4 µM; with 786-0 renal it was 29.4 µM. Moreover, the GI50 in the assay with HL-60(TB) leukemia was 12.4 µM; in the assay on OVCAR-5 ovarian it was 19.5 µM; with HOP-62 NSCLC it was 32 µM. In addition, the TGI in the assay on SR leukemia is 34.5 µM; in the assay on HCT-116 colon, above 100 µM; in the assay on IGROV1 ovarian, above 100 µM; in the assay on COLO 205 colon, 63.4 µM; with SNB-75 CNS, 95.9 µM; with 786-0 renal, above 100 µM. The figures for the TGI with HL-60(TB) leukemia, in the assay on OVCAR-5 ovarian and with HOP-62 NSCLC were 38 µM, above 100 µM and above 100 µM, respectively.

Consider `COc1cc(/C=C\c2cc(/C=C\c3ccc(O)c(OC)c3)n(C(=O)Nc3ccc(C(F)(F)F)cc3)n2)ccc1O`, for which the GI50 in the assay on SR leukemia was 1.48 µM; with HCT-116 colon it was 1.51 µM; with IGROV1 ovarian, 2.77 µM; with COLO 205 colon it was 2.05 µM; with SNB-75 CNS it was 2.99 µM; in the assay on 786-0 renal it was 2.42 µM. Moreover, the GI50 was 1.98 µM in the assay with HL-60(TB) leukemia, 2.16 µM with OVCAR-5 ovarian, 3.6 µM with HOP-62 NSCLC and 1.94 µM in the assay on M14 melanoma. Moreover, the TGI with SR leukemia was above 100 µM; with HCT-116 colon, 2.94 µM; in the assay on IGROV1 ovarian, 11.6 µM; in the assay with COLO 205 colon, 4.5 µM; in the assay with SNB-75 CNS it was 66 µM; with 786-0 renal, 7.52 µM. In addition, the TGI with HL-60(TB) leukemia came out at 6.45 µM; in the assay with OVCAR-5 ovarian it was 4.97 µM; in the assay with HOP-62 NSCLC it was 16.2 µM; in the assay with M14 melanoma, 4.08 µM.

As to `COc1cccc(C(=O)O)c1Cc1cccc2ccccc12`, the TGI in the assay with SR leukemia, with HCT-116 colon, in the assay with IGROV1 ovarian, with COLO 205 colon, in the assay on SNB-75 CNS and in the assay with 786-0 renal was above 100 µM throughout. For the same compound, the TGI in the assay with HL-60(TB) leukemia, with OVCAR-5 ovarian, in the assay with HOP-62 NSCLC and in the assay with M14 melanoma was above 100 µM throughout.

For the compound `Cc1cc(Cl)ccc1OCC(=O)Oc1c(Cl)c(Cl)c(Cl)c(Cl)c1Cl`, the TGI in the assay with SR leukemia was 60 µM; with HCT-116 colon it was 45.8 µM; in the assay on IGROV1 ovarian, 79.5 µM; in the assay on COLO 205 colon, 78 µM; in the assay on SNB-75 CNS, 62.6 µM; in the assay on 786-0 renal, 85.5 µM. The TGI is above 100 µM in the assay with HL-60(TB) leukemia, 59.2 µM with OVCAR-5 ovarian, 47.2 µM in the assay with HOP-62 NSCLC and 71.4 µM in the assay with M14 melanoma.

`CC(C)C(OC(=O)c1cc(NC(=S)c2ccccc2)ccc1Cl)C(C)C`: the TGI in the assay on SR leukemia was above 60.8 µM; in the assay with HCT-116 colon, 40.8 µM; with IGROV1 ovarian, above 100 µM; with COLO 205 colon it was 41.7 µM; in the assay on SNB-75 CNS, 59.1 µM; in the assay with 786-0 renal, 50.8 µM. Also, the TGI in the assay with HL-60(TB) leukemia is 55.8 µM; in the assay on OVCAR-5 ovarian, above 100 µM; with HOP-62 NSCLC, above 100 µM; in the assay on M14 melanoma, above 84.8 µM.

Take `CP(=O)(CCSc1ccccc1)c1ccccc1` (stereo not given): the TGI in the assay with SR leukemia, with HCT-116 colon, in the assay on IGROV1 ovarian, with COLO 205 colon, in the assay with SNB-75 CNS and in the assay on 786-0 renal was above 100 µM throughout. Moreover, the TGI with HL-60(TB) leukemia, in the assay on HOP-62 NSCLC and in the assay with M14 melanoma was above 100 µM throughout.

For `CC(=O)OC1CC(C)c2c1ncnc2N1CCN(C(=O)OC(C)(C)C)CC1` (stereo not given), the GI50 with SR leukemia is 21.6 µM; with HCT-116 colon it was 38.1 µM; with IGROV1 ovarian, 92.5 µM; in the assay on COLO 205 colon, 38.5 µM; with SNB-75 CNS it was 25.2 µM; with 786-0 renal, 56.2 µM. Moreover, the GI50 in the assay on HL-60(TB) leukemia is 25.9 µM; with OVCAR-5 ovarian, 99.2 µM; with HOP-62 NSCLC, 45.4 µM; in the assay on M14 melanoma, 30.4 µM. For the same compound, the TGI in the assay on SR leukemia was 63.7 µM; with HCT-116 colon it was above 100 µM; in the assay with IGROV1 ovarian it was above 100 µM; with COLO 205 colon it was above 100 µM; in the assay on SNB-75 CNS, above 100 µM; with 786-0 renal, above 100 µM. The TGI was 83.6 µM in the assay with HL-60(TB) leukemia, above 100 µM in the assay with OVCAR-5 ovarian, above 100 µM in the assay on HOP-62 NSCLC and above 100 µM in the assay with M14 melanoma.

For `CN(C)c1ccc2c(SCC(=O)OCC(=O)[C@@]3(O)CC[C@H]4[C@@H]5CCC6=CC(=O)C=C[C@]6(C)[C@H]5C(=O)C[C@@]43C)c3ccc(N(C)C)cc3nc2c1`, the TGI with SR leukemia is 4 µM; with HCT-116 colon it was above 100 µM; in the assay with IGROV1 ovarian, above 100 µM; with COLO 205 colon it was above 100 µM; with SNB-75 CNS, above 89.7 µM; in the assay with 786-0 renal it was above 47.4 µM. Moreover, the TGI in the assay on HL-60(TB) leukemia was above 20.5 µM; in the assay with OVCAR-5 ovarian, above 100 µM; in the assay on HOP-62 NSCLC, above 100 µM; in the assay on M14 melanoma, above 100 µM.

(Values after PubChem BioAssay (NCI).)
